Paper PMC7556697 (ACS chemical biology, 2020)

Target: NRAS (Homo sapiens, UniProt P01111, Q61R)
Assay: acyl-resin assisted capture
Assay type: cell-based

IC50: 7 µM
Substance: C8 alkyl cysteine [compound 1]
